For this experiment, the system named is P388 leukemia ip, CD2F1 mice, survival T/C. As to the kind of experiment: NCI In Vivo Anticancer Drug Screen. Data for tumor model P388 Leukemia (intraperitoneal) in CD2F1 (CDF1) mice. The settings on record: endpoint: median survival time, higher = longer survival. In short, it runs like this:
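Mice carrying the transplanted tumor received test compound or vehicle. Survival was recorded in each group, and the value is the treated-group measurement divided by that of the vehicle-treated control group.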

Where [1] appears, read: dose: 6.25 mg/kg/injection, schedule: Q01DX005 (ip), vehicle: Klucel (hydroxypropylcellulose) (HPC).
Where [2] appears, read: dose: 12.5 mg/kg/injection, schedule: Q01DX005 (ip), vehicle: Klucel (hydroxypropylcellulose) (HPC).
Where [3] appears, read: dose: 50.0 mg/kg/injection, schedule: Q01DX005 (ip), vehicle: Klucel (hydroxypropylcellulose) (HPC).
Where [4] appears, read: dose: 100.0 mg/kg/injection, schedule: Q01DX005 (ip), vehicle: Klucel (hydroxypropylcellulose) (HPC).
Where [5] appears, read: dose: 100.0 mg/kg/injection, schedule: Q04DX002 (ip), vehicle: saline with Tween-80.
Setting [6] is: dose: 200.0 mg/kg/injection, schedule: Q04DX002 (ip), vehicle: saline with Tween-80.
[7] abbreviates: dose: 400.0 mg/kg/injection, schedule: Q04DX002 (ip), vehicle: saline with Tween-80.
Setting [8] is: dose: 50.0 mg/kg/injection, schedule: Q01DX009 (ip), vehicle: saline with Tween-80.
Where [9] appears, read: dose: 100.0 mg/kg/injection, schedule: Q01DX009 (ip), vehicle: saline with Tween-80.
Setting [10] is: dose: 25.0 mg/kg/injection, schedule: Q01DX005 (ip), vehicle: Klucel (hydroxypropylcellulose) (HPC).
[11] abbreviates: dose: 60.0 mg/kg/injection, schedule: Q01DX005 (ip), vehicle: saline with Tween-80.
Where [12] appears, read: dose: 50.0 mg/kg/injection, schedule: Q01DX005 (ip), vehicle: saline with Tween-80.
The mark [13] stands for this setting: dose: 100.0 mg/kg/injection, schedule: Q01DX005 (ip), vehicle: saline with Tween-80.
The mark [14] stands for this setting: dose: 200.0 mg/kg/injection, schedule: Q01DX005 (ip), vehicle: saline with Tween-80.
Setting [15] is: dose: 50.0 mg/kg/injection, schedule: Q01DX009 (ip), vehicle: saline.
[16] abbreviates: dose: 100.0 mg/kg/injection, schedule: Q01DX009 (ip), vehicle: saline.
Where [17] appears, read: dose: 200.0 mg/kg/injection, schedule: Q01DX009 (ip), vehicle: saline.

Molecules are shown by their SMILES. “And” between values parts separate entries of the source, which are not always exact repeats. Equal values may be shown once. Toxic doses and inconclusive results are not listed.

Take `COC(=O)c1c(C(=O)OC)c(Nc2ccccc2)c2ccccc2c1O`: the T/C is, setting by setting: (dose: 3.12 mg/kg/injection, schedule: Q01DX005 (ip), vehicle: Klucel (hydroxypropylcellulose) (HPC)) 115 % of control; under setting [1], 107 % of control; under setting [2], 99 % of control.
Regarding `NNC(N)=NC1CCCCC1`, the T/C runs as follows: under setting [3], 95 % of control; under setting [4], 97 % of control.
For the compound `COC(=O)c1nnc(C(=O)OC)c2c1c1ccccc1n2C(C)=O`, the T/C runs as follows: under setting [5], 99 % of control; under setting [6], 99 % of control; under setting [7], 99 % of control.
In the case of `Nc1cc(NC=O)ncn1`, the T/C reads like this: (dose: 25.0 mg/kg/injection, schedule: Q01DX009 (ip), vehicle: saline with Tween-80) 102 % of control; under setting [8], 105 % of control; under setting [9], 102 % of control.
Turning to `C[Si](Cn1ccc(=O)[nH]c1=O)(c1ccccc1)c1ccccc1`, the T/C runs as follows: (dose: 100.0 mg/kg/injection, schedule: Q01DX001 (ip), vehicle: saline with Tween-80) 109 % of control; (dose: 200.0 mg/kg/injection, schedule: Q01DX001 (ip), vehicle: saline with Tween-80) 100 % of control; (dose: 400.0 mg/kg/injection, schedule: Q01DX001 (ip), vehicle: saline with Tween-80) 95 % of control.
As to `COc1ccc(/C=C/C(=O)c2ccccc(=O)c2O)cc1OC`, the T/C runs as follows: under setting [10], 99 % of control; under setting [3], 100 % of control; under setting [4], 114 % of control; (dose: 200.0 mg/kg/injection, schedule: Q01DX005 (ip), vehicle: Klucel (hydroxypropylcellulose) (HPC)) 113 % of control.
`NC1=NN(O)C2=CC([N+](=O)[O-])C=CC2=N1` (stereo not drawn): the T/C is 101 % of control under setting [8]; 110 % of control under setting [9]; 97 % of control (dose: 200.0 mg/kg/injection, schedule: Q01DX009 (ip), vehicle: saline with Tween-80).
As to `O=C(c1ccccc1)c1cc(Cl)ccc1NCC(O)COc1cccc2ccccc12` (stereo not drawn), the T/C runs as follows: under setting [11], 100 % of control; (dose: 120.0 mg/kg/injection, schedule: Q01DX005 (ip), vehicle: saline with Tween-80) 91 % of control; (dose: 240.0 mg/kg/injection, schedule: Q01DX005 (ip), vehicle: saline with Tween-80) 88 % of control.
Regarding `S=C1N(c2ccc(Cl)cc2)C2=C(N=Nc3ccccc3)C(=Nc3ccccc3S2)N1c1ccccn1`, the T/C under setting [12] is 109 % of control and the T/C under setting [13] is 108 % of control.
As to `Cc1cc[n+](C)c(Cc2ccccc2)c1C`, the T/C by setting is: under setting [2], 97 % of control; under setting [10], 100 % of control; under setting [3], 112 % of control.
`O=c1cc[nH]c2ccc3ccccc3c12`: the T/C was 97 % of control (dose: 100.0 mg/kg/injection, schedule: Q01DX001 (ip), vehicle: Klucel (hydroxypropylcellulose) (HPC)) and 96 % of control (dose: 200.0 mg/kg/injection, schedule: Q01DX001 (ip), vehicle: Klucel (hydroxypropylcellulose) (HPC)).
Consider `CC1=C/N\C(C#N)=C(C#N)/N=C/C(C)=C\N\C(C#N)=C(C#N)/N=C\1`, for which the T/C is, setting by setting: (dose: 50.0 mg/kg/injection, schedule: Q01DX009 (ip), vehicle: Klucel (hydroxypropylcellulose) (HPC)) 92 % of control; (dose: 100.0 mg/kg/injection, schedule: Q01DX009 (ip), vehicle: Klucel (hydroxypropylcellulose) (HPC)) 105 % of control; (dose: 200.0 mg/kg/injection, schedule: Q01DX009 (ip), vehicle: Klucel (hydroxypropylcellulose) (HPC)) 98 % of control.
`O=c1[nH]c2c(=O)[nH][nH]c(=O)c2[nH]c1=O`: the T/C runs as follows: (dose: 15.0 mg/kg/injection, schedule: Q01DX005 (ip), vehicle: saline with Tween-80) 103 % of control; (dose: 30.0 mg/kg/injection, schedule: Q01DX005 (ip), vehicle: saline with Tween-80) 100 % of control; under setting [11], 99 % of control and 105 % of control.
As to `CC(C)CC(NC(=O)OC(C)(C)C)C(=O)ON1C(=O)CCC1=O` (stereo not drawn), the T/C was 111 % of control under setting [12] and 111 % of control under setting [13].
For `CCSc1ccc([N+](=O)[O-])c2c(SCC)c3ccccc3nc12`, the T/C reads like this: under setting [12], 92 % of control; under setting [13], 95 % of control; under setting [14], 99 % of control.
Consider `C/C(=C\c1cc2cc(C(=N)N)ccc2o1)c1cc2cc(C(=N)N)ccc2o1`, for which the T/C (dose: 400.0 mg/kg/injection, schedule: Q04DX002 (ip), vehicle: saline) was 159 % of control.
For the compound `NC(=O)CC(N)CO` (stereo not drawn), the T/C runs as follows: under setting [15], 100 % of control; under setting [16], 100 % of control; under setting [17], 103 % of control; (dose: 400.0 mg/kg/injection, schedule: Q01DX009 (ip), vehicle: saline) 101 % of control.
In the case of `CCC1COc2nc(=O)c(C=NCCCN(C)C)c(N)n21` (stereo not drawn), the T/C runs as follows: (dose: 60.0 mg/kg/injection, schedule: Q01DX005 (ip), vehicle: saline) 100 % of control; (dose: 120.0 mg/kg/injection, schedule: Q01DX005 (ip), vehicle: saline) 105 % of control; (dose: 240.0 mg/kg/injection, schedule: Q01DX005 (ip), vehicle: saline) 99 % of control.
As for `Clc1ccc(-c2csc3sc4ccccc4[n+]23)cc1`, the T/C reads like this: under setting [12], 111 % of control; under setting [13], 118 % of control; under setting [14], 113 % of control.
Regarding `CN1CCc2c(n(C)c3ccccc23)C1=O`, the T/C reads like this: (dose: 25.0 mg/kg/injection, schedule: Q04DX002 (ip), vehicle: saline with Tween-80) 102 % of control; (dose: 50.0 mg/kg/injection, schedule: Q04DX002 (ip), vehicle: saline with Tween-80) 98 % of control; under setting [5], 106 % of control; under setting [6], 101 % of control; under setting [7], 99 % of control.
On to `CC[n+]1ccc(Nc2ccc(NC(=O)c3ccc(Nc4cc[n+](CC)c5ccc([N+](=O)[O-])cc45)cc3)cc2)cc1`, for which the T/C was 162 % of control and 200 % of control (dose: 11.0 mg/kg/injection, schedule: Q01DX009 (ip), vehicle: Klucel (hydroxypropylcellulose) (HPC)); 215 % of control (dose: 16.0 mg/kg/injection, schedule: Q01DX009 (ip), vehicle: Klucel (hydroxypropylcellulose) (HPC)); 226 % of control (dose: 16.5 mg/kg/injection, schedule: Q01DX009 (ip), vehicle: Klucel (hydroxypropylcellulose) (HPC)); 175 % of control (dose: 22.0 mg/kg/injection, schedule: Q04DX003 (ip), vehicle: saline); 200 % of control (dose: 24.0 mg/kg/injection, schedule: Q01DX009 (ip), vehicle: Klucel (hydroxypropylcellulose) (HPC)); 154 % of control (dose: 25.0 mg/kg/injection, schedule: Q04DX003 (ip), vehicle: saline). Further, the T/C is 175 % of control (dose: 33.0 mg/kg/injection, schedule: Q04DX003 (ip), vehicle: saline) and 180 % of control (dose: 50.0 mg/kg/injection, schedule: Q04DX003 (ip), vehicle: saline).
With `CCOC(=O)N1C=CC2(C=C1)CCCCCC2`, the T/C runs as follows: (dose: 37.5 mg/kg/injection, schedule: Q04DX003 (ip), vehicle: Klucel (hydroxypropylcellulose) (HPC)) 101 % of control; (dose: 75.0 mg/kg/injection, schedule: Q04DX003 (ip), vehicle: Klucel (hydroxypropylcellulose) (HPC)) 98 % of control.
`CCCC(N)C(=O)NC(Cc1c[nH]c2ccccc12)C(=O)O` (stereo not drawn): the T/C by setting is: under setting [12], 101 % of control; under setting [13], 102 % of control; under setting [14], 103 % of control.
As for `CN(C)CC1CCCC(CN(C)C)C1O` (stereo not drawn), the T/C was 99 % of control (dose: 50.0 mg/kg/injection, schedule: Q01DX005 (ip), vehicle: saline); 94 % of control (dose: 100.0 mg/kg/injection, schedule: Q01DX005 (ip), vehicle: saline); 93 % of control (dose: 200.0 mg/kg/injection, schedule: Q01DX005 (ip), vehicle: saline).
With `COc1cc(CCN)ccc1OCc1ccccc1`, the T/C was 107 % of control (dose: 25.0 mg/kg/injection, schedule: Q01DX009 (ip), vehicle: saline); 104 % of control under setting [15]; 110 % of control under setting [16].
As for `O=c1[nH]nc(SCc2ccc(Cl)cc2Cl)c(=O)[nH]1`, the T/C by setting is: under setting [1], 100 % of control; under setting [2], 94 % of control; under setting [10], 86 % of control.
For the compound `CN(C)CCCNCC#CCNCCCN(C)C`, the T/C under setting [15] is 100 % of control, the T/C under setting [16] is 105 % of control and the T/C under setting [17] was 105 % of control.

These data come from PubChem BioAssay AID330 (DTP/NCI, 2004).
